# According to PubChem BioAssay AID1963827 (Molecular Pharmacology Branch, DTP, NCI, 2024):
# Tested on: 994946-033-R-J1-PDC complex spheroid viability
# Assay: Anticancer human tumor 994946-033-R-J1-PDC patient-derived melanoma cell line growth inhibition [POLQ]
# Conditions: for IC50: curve of first compound; for viability, T/C: stronger effect = lower value
# Method in brief: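 Three-cell-type spheroids modelling solid tumor plus stroma served as the readout system; POL inhibitors were tested individually and in combination, concentration ranges set by clinical Cmax where known.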
# [1] = second compound 0.0316 µM, first compound 0.0316 µM
# [2] = second compound 0.0316 µM, first compound 0.1 µM
# [3] = second compound 0.0316 µM, first compound 0.316 µM
# [4] = second compound 0.0316 µM, first compound 1 µM
# [5] = second compound 0.0316 µM, first compound 3.16 µM
# [6] = second compound 0.0316 µM, first compound 10 µM
# [7] = second compound 0.1 µM, first compound 0.0316 µM
# [8] = second compound 0.1 µM, first compound 0.1 µM
# [9] = second compound 0.1 µM, first compound 0.316 µM
# [10] = second compound 0.1 µM, first compound 1 µM
# [11] = second compound 0.1 µM, first compound 3.16 µM
# [12] = second compound 0.1 µM, first compound 10 µM
# [13] = second compound 0.316 µM, first compound 0.0316 µM
# [14] = second compound 0.316 µM, first compound 0.1 µM
# [15] = second compound 0.316 µM, first compound 0.316 µM
# [16] = second compound 0.316 µM, first compound 1 µM
# [17] = second compound 0.316 µM, first compound 3.16 µM
# [18] = second compound 0.316 µM, first compound 10 µM
# [19] = second compound 1 µM, first compound 0.0316 µM
# [20] = second compound 1 µM, first compound 0.1 µM
# [21] = second compound 1 µM, first compound 0.316 µM
# [22] = second compound 1 µM, first compound 1 µM
# [23] = second compound 1 µM, first compound 3.16 µM
# [24] = second compound 1 µM, first compound 10 µM
# [25] = second compound 3.16 µM, first compound 0.0316 µM
# [26] = second compound 3.16 µM, first compound 0.1 µM
# [27] = second compound 3.16 µM, first compound 0.316 µM
# [28] = second compound 3.16 µM, first compound 1 µM
# [29] = second compound 3.16 µM, first compound 3.16 µM
# [30] = second compound 3.16 µM, first compound 10 µM
# [31] = second compound 10 µM, first compound 0.0316 µM
# [32] = second compound 10 µM, first compound 0.1 µM
# [33] = second compound 10 µM, first compound 0.316 µM
# [34] = second compound 10 µM, first compound 1 µM
# [35] = second compound 10 µM, first compound 3.16 µM
# [36] = second compound 10 µM, first compound 10 µM
# 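Note: spheroids exposed to drugs for 7 days.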
# 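Throughout, for viability, T/C: 100% = DMSO vehicle treated spheroids.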
structure (smiles),measurement,setting,value
COc1cc2cc(C(=O)CCC(=O)O)sc2cc1OC + Cc1cccc(N(C)C(=O)C2C(O)CCN2c2nc(C)cc(C(F)(F)F)c2C#N)c1,IC50,second compound 0.0316 µM,> 10 µM
same,IC50,second compound 0.1 µM,> 10 µM
same,IC50,second compound 0.316 µM,> 10 µM
same,IC50,second compound 1 µM,> 10 µM
same,IC50,second compound 3.16 µM,> 10 µM
same,IC50,second compound 10 µM,> 10 µM
same,"viability, T/C",[1],79.5%
same,"viability, T/C",[2],96.4%
same,"viability, T/C",[3],130%
same,"viability, T/C",[4],74.9%
same,"viability, T/C",[5],91%
same,"viability, T/C",[6],82.3%
same,"viability, T/C",[7],116%
same,"viability, T/C",[8],91.4%
same,"viability, T/C",[9],102%
same,"viability, T/C",[10],88.5%
same,"viability, T/C",[11],98.8%
same,"viability, T/C",[12],92.8%
same,"viability, T/C",[13],67.7%
same,"viability, T/C",[14],96.1%
same,"viability, T/C",[15],70.5%
same,"viability, T/C",[16],88.2%
same,"viability, T/C",[17],79.7%
same,"viability, T/C",[18],84.3%
same,"viability, T/C",[19],67.6%
same,"viability, T/C",[20],86.9%
same,"viability, T/C",[21],72.9%
same,"viability, T/C",[22],103%
same,"viability, T/C",[23],72.3%
same,"viability, T/C",[24],80.9%
same,"viability, T/C",[25],120%
same,"viability, T/C",[26],93.4%
same,"viability, T/C",[27],101%
same,"viability, T/C",[28],94.4%
same,"viability, T/C",[29],110%
same,"viability, T/C",[30],94.1%
same,"viability, T/C",[31],97.6%
same,"viability, T/C",[32],94.4%
same,"viability, T/C",[33],92.9%
same,"viability, T/C",[34],86.3%
same,"viability, T/C",[35],87.8%
same,"viability, T/C",[36],76.7%
COc1ccc([C@@H](O)c2cc(-c3ncnc4cc(N5CCOCC5)ccc34)c(F)cc2Cl)nn1 + Cc1cccc(N(C)C(=O)C2C(O)CCN2c2nc(C)cc(C(F)(F)F)c2C#N)c1,IC50,second compound 0.0316 µM,4.06 µM
same,IC50,second compound 0.1 µM,6.54 µM
same,IC50,second compound 0.316 µM,2.25 µM
same,IC50,second compound 1 µM,6.16 µM
same,IC50,second compound 3.16 µM,2.65 µM
same,IC50,second compound 10 µM,6.2 µM
same,"viability, T/C",[1],108%
same,"viability, T/C",[2],95.1%
same,"viability, T/C",[3],106%
same,"viability, T/C",[4],64.1%
same,"viability, T/C",[5],60.7%
same,"viability, T/C",[6],32.5%
same,"viability, T/C",[7],90.9%
same,"viability, T/C",[8],105%
same,"viability, T/C",[9],93.3%
same,"viability, T/C",[10],78.5%
same,"viability, T/C",[11],71.6%
same,"viability, T/C",[12],38.4%
same,"viability, T/C",[13],118%
same,"viability, T/C",[14],94.1%
same,"viability, T/C",[15],103%
same,"viability, T/C",[16],60.4%
same,"viability, T/C",[17],45.6%
same,"viability, T/C",[18],45.1%
same,"viability, T/C",[19],104%
same,"viability, T/C",[20],96.6%
same,"viability, T/C",[21],82%
same,"viability, T/C",[22],105%
same,"viability, T/C",[23],60.9%
same,"viability, T/C",[24],42.1%
same,"viability, T/C",[25],115%
same,"viability, T/C",[26],125%
same,"viability, T/C",[27],101%
same,"viability, T/C",[28],60.5%
same,"viability, T/C",[29],56.8%
same,"viability, T/C",[30],38.6%
same,"viability, T/C",[31],74.9%
same,"viability, T/C",[32],101%
same,"viability, T/C",[33],60.3%
same,"viability, T/C",[34],76.6%
same,"viability, T/C",[35],62.7%
same,"viability, T/C",[36],41.1%
CC1COCCN1c1cc(-c2ccnn2C)c2ccnc(-c3ccn[nH]3)c2n1 (stereo not drawn) + Nc1ccc(C#CCN(C(=O)Cc2ncc(C(F)(F)F)cc2C(F)(F)F)c2ccc(F)cc2)nn1,IC50,second compound 0.0316 µM,0.0644 µM
same,IC50,second compound 0.1 µM,0.0729 µM
same,IC50,second compound 0.316 µM,0.0725 µM
same,IC50,second compound 1 µM,0.0739 µM
same,IC50,second compound 3.16 µM,0.062 µM
same,IC50,second compound 10 µM,0.0806 µM
same,"viability, T/C",[1],65.8%
same,"viability, T/C",[2],41.7%
same,"viability, T/C",[3],21.8%
same,"viability, T/C",[4],29.1%
same,"viability, T/C",[5],19.8%
same,"viability, T/C",[6],15.4%
same,"viability, T/C",[7],86.3%
same,"viability, T/C",[8],31.8%
same,"viability, T/C",[9],29.6%
same,"viability, T/C",[10],26%
same,"viability, T/C",[11],16.3%
same,"viability, T/C",[12],9.84%
same,"viability, T/C",[13],70.5%
same,"viability, T/C",[14],40.5%
same,"viability, T/C",[15],26.1%
same,"viability, T/C",[16],23.6%
same,"viability, T/C",[17],17.5%
same,"viability, T/C",[18],9.71%
same,"viability, T/C",[19],75.5%
same,"viability, T/C",[20],33.7%
same,"viability, T/C",[21],32.9%
same,"viability, T/C",[22],33.6%
same,"viability, T/C",[23],15.4%
same,"viability, T/C",[24],14.1%
same,"viability, T/C",[25],60.7%
same,"viability, T/C",[26],42.4%
same,"viability, T/C",[27],22.1%
same,"viability, T/C",[28],21.1%
same,"viability, T/C",[29],25.6%
same,"viability, T/C",[30],14.1%
same,"viability, T/C",[31],76.1%
same,"viability, T/C",[32],44%
same,"viability, T/C",[33],21.1%
same,"viability, T/C",[34],21.7%
same,"viability, T/C",[35],21.6%
same,"viability, T/C",[36],15.8%
CNCc1ccc(-c2[nH]c3cc(F)cc4c3c2CCNC4=O)cc1 + Nc1ccc(C#CCN(C(=O)Cc2ncc(C(F)(F)F)cc2C(F)(F)F)c2ccc(F)cc2)nn1,IC50,second compound 0.0316 µM,> 10 µM
same,IC50,second compound 0.1 µM,> 10 µM
same,IC50,second compound 0.316 µM,> 10 µM
same,IC50,second compound 1 µM,> 10 µM
same,IC50,second compound 3.16 µM,> 10 µM
same,IC50,second compound 10 µM,> 10 µM
same,"viability, T/C",[1],97.4%
same,"viability, T/C",[2],84.1%
same,"viability, T/C",[3],84%
same,"viability, T/C",[4],85.3%
same,"viability, T/C",[5],94.5%
same,"viability, T/C",[6],79%
same,"viability, T/C",[7],77.9%
same,"viability, T/C",[8],83.1%
same,"viability, T/C",[9],99.7%
same,"viability, T/C",[10],61.5%
same,"viability, T/C",[11],95.8%
same,"viability, T/C",[12],70.6%
same,"viability, T/C",[13],81.7%
same,"viability, T/C",[14],86.4%
same,"viability, T/C",[15],90%
same,"viability, T/C",[16],68.8%
same,"viability, T/C",[17],77.2%
same,"viability, T/C",[18],69.1%
same,"viability, T/C",[19],73.4%
same,"viability, T/C",[20],69.2%
same,"viability, T/C",[21],107%
same,"viability, T/C",[22],77.9%
same,"viability, T/C",[23],103%
same,"viability, T/C",[24],63.1%
same,"viability, T/C",[25],105%
same,"viability, T/C",[26],105%
same,"viability, T/C",[27],85%
same,"viability, T/C",[28],107%
same,"viability, T/C",[29],74.2%
same,"viability, T/C",[30],77.5%
same,"viability, T/C",[31],72%
same,"viability, T/C",[32],74.2%
same,"viability, T/C",[33],88.7%
same,"viability, T/C",[34],113%
same,"viability, T/C",[35],96%
same,"viability, T/C",[36],78.3%
